Data set [1] can be described thus: Change of concentration in plasma over time after oral administration to rats (KNI-272 with Indinavir or Nelfinavir). Particulars: for AUC: rat, plasma, po, 40 mg/kg, AUC value of Indinavir. As for the experimental part: In this example, the change in concentration in blood of KNI-272 over time when the KNI-272 was orally administered in combination with Indinavir, i.e. the change in the concentration of a non-binding type of drug in plasma over time, was measured to evaluate the effect of drug interactions on fluctuations of dynamics in vivo. A commercially available Indinavir for oral administration, CRIXIVAN™ (manufactured by Merck), was used after dissolving Indinavir sulfate in a prescribed concentration. As KNI-272, a suspension prepared from a fine powder of KNI-272 was used. Rats were used as test animals. […] In addition, each compound was individually administered to control groups to evaluate the dynamics in vivo. The animals were fasted for 16 hours before administration. The measurement of the change in the non-binding drug concentration in plasma over time was carried out according to a conventional method using blood samples collected from the test animals.
The method of evaluation was applied to the above-mentioned system of Indinavir and KNI-272 was followed. […] In this example, a dosage of 50 mg/kg was selected for both Nelfinavir and KNI-272.

A further data set has as its system HIV Wild strain (IIIB). Put plainly: Anti-virus activity IC50 against wild strain. The class given is cell-based. The note with it: Wild strain (IIIB).
A further data set concerns KNI-272 resistant strain. Briefly: microbe, parasite or virus in culture. The class given is cell-based, HIV. The text has this: (§1) A drug resistant strain virus is a resistance strains induced in a cell culture system in vitro while maintaining infection in the presence of each medicament through generations.
In data set [2] the test system is Ritonavir resistant strain. Put plainly: Anti-virus activity IC50 against Ritonavir resistant strain. In kind it is cell-based, HIV. Particulars: Ritonavir resistant strain.
For data set [3], the system named is IIIB strain of HIV-1 in CEM-SS cells. Briefly: Measurement of anti-HIV activity in vitro (XTT method, control of cellular denaturalization due to HIV infection). The class given is cell-based. The protocol: An increase in the synergistic anti-virus activity in the combined use of KNI-272 and Saquinavir is shown by a specific experimental example. The anti-virus activity was evaluated as the capability of controlling generation of infectious virus particles in vitro. The effect of cell extinction to HIV infection was calculated when Saquinavir methanesulfonate and KNI-272 respectively or both were added to a culture liquid, to determine the concentration region where a synergistic increase in the anti-virus activity in the combined use of the two compounds is conspicuous. Measurement of the anti-virus activity in vitro was carried out according to the following procedure. In the description hereinafter the concentration of methanesulfonate is indicated as the concentration converted into Saquinavir. The concentration of KNI-272 is indicated as the concentration of the compound itself.
A IIIB strain of HIV-1 was used as an HIV wild strain and CEM-SS cells were used as infected cells in the above-mentioned culture. The amount of HIV sufficient to kill all CEM-SS cells 6 days after inoculation (multiplicy of infection, MOI of 0.01-0.05) was determined and this amount of HIV was added. A 96 well micro-titre plate was used to inoculate 5×10^3 CEM-SS cells per well in this case. At the time of inoculation of cells, a test compound was added to the culture medium to a prescribed concentration. Three specimens were used for each test level. The following controls were used (1) as calorimetric controls: a sample with only a test compound added to the culture medium, (2) as a cytotoxic control for a test compound: a sample with only cells and the test compound added to the culture medium, (3) as a virus control: a sample with the cells inoculated with only a virus, and (4) as a cell survival control, a sample consisting only of cells. In addition, AZT and DDC which are compounds with a known anti-HIV activity were used as positive controls. After the cells were added, they were inoculated with the infecting virus, followed by incubation at 37° C.for 6 days. Cellular denaturalization due to HIV infection was colorimetrically measured for each well. Employing the colorimetry, was the metabolism from XTT Tetrazolium to XTT Formazan was evaluated. This colorimetry is called the XTT method (see Weislow et al., Journal of the National Cancer Institute 81, 577-586 (1989)). After the above-mentioned incubation, a prescribed amount of XTT was added to each well and incubation was continued for a further four hours at 37° C. to measure the amount of XTT Formazan produced by metabolism by means of calorimetric quantitation.
The anti-HIV activity for each experimental level was calculated by comparing the number of undenatured cells measured by the above-mentioned assay with the corresponding number of cells in the four control groups. Specifically, the proportion of cellular denaturalization due to HIV infection controlled by the addition of the test compound was calculated. A systematic deviation between the several experiments was corrected based on the results of AZT and ddC used as positive controls.
In this example, 0 ng/ml and several concentrations in the range of 0.625-10.0 ng/ml of Saquinavir methanesulfonate and 0 ng/ml and several concentrations in the range of 0.313-80.0 ng/ml of KNI-272 were used. The results (anti-HIV activities) obtained under these conditions using either one of these medicaments or both medicaments in combination are shown in Table 1.
With regard to this concentration region wherein no synergistic increase can be seemingly identified, a similar evaluation was carried out adding a larger amount of HIV to qualitatively evaluate the presence or absence of a synergistic effect. […] This affords qualitative results rather than quantitative results.
An increase in the synergistic anti-virus activity in the combined use of KNI-272 and Ritonavir is shown by a specific experimental example. […]
(Tetrazolium assays rely on reduction of a dye to a coloured formazan, in cell work by metabolically active cells.)

A short description of data set [4]: Dynamics in vivo (concentration in plasma over time) of KNI-272 and Ritonavir in dogs.
The subject of data set [5] is Indinavir resistant strain. Put plainly: Anti-virus activity IC50 against Indinavir resistant strain. In kind it is cell-based, HIV. The note with it: Human immunodeficiency virus 1, read-out: Anti-virus activity IC50.
Excerpt: as §1

Setting [6] is: Indinavir 40 mg/kg + KNI-272 40 mg/kg p.o. at the same time.
The mark [7] stands for this setting: Human immunodeficiency virus 1, read-out: Anti-virus activity IC50.

The results in this text go back to US20020068749A1, “AIDS REMEDY” (priority 1996, published 2002).

≈ marks a conversion by molar mass, not a printed value. Bounds are passed on as bounds.

As to `Cc1c(O)cccc1C(=O)N[C@@H](CSc1ccccc1)[C@H](O)CN1C[C@H]2CCCC[C@H]2C[C@H]1C(=O)NC(C)(C)C` (relative stereo) [Nelfinavir, [3S-[2(2S*, 3S*), 3α, 4α, 8aβ]]-N-1,1-dimethylethyl-decahydro-2-[2-hydroxy-3-[(3-hydroxy-2-methylbenzoyl)amino]-4-(phenylthio)butyl]-3-isoquinolinecarboxamide, reference compound], the “AUC value for Nelfinavir” value in data set [1] (Nelfinavir 50 mg/kg p.o. only) was found to be 130 µg·min/mL; in data set [1] (Nelfinavir 50 mg/kg p.o. simultaneously with KNI-272 50 mg/kg) it was 215 µg·min/mL. The “increase in AUC value for Nelfinavir” value in data set [1] (Nelfinavir 50 mg/kg with KNI-272 50 mg/kg vs alone) is approximately 1.6 times. Moreover, the “Anti-virus activity IC50” value in the data set on HIV Wild strain (IIIB) came out at 0.007 µg/mL; with KNI-272 resistant strain (KNI-272 resistant strain), 0.030 µg/mL; in data set [2], 0.124 µg/mL.
For the compound `CC(C)c1nc(CN(C)C(=O)NC(C(=O)N[C@@H](Cc2ccccc2)C[C@H](O)[C@H](Cc2ccccc2)NC(=O)OCc2cncs2)C(C)C)cs1` (relative stereo) [Ritonavir, [5S-(5R*, 8R*, 10R*,11R*)]-10-hydroxy-2-methyl-5-(1-methylethyl)-1-[2-(1-methylethyl)-4-thiazolyl]-3,6-dioxo-8,11-bis(phenylmethyl)-2,4,7,12-tetraaza-tridecane-13-hydroxyacid 5-thiazolylmethyl ester, reference compound], the “Anti-HIV activity (%)” value in data set [3] (Ritonavir 1.25 ng/ml alone) came to 2.0%; in data set [3] (Ritonavir 2.5 ng/ml alone) it was 2.3%; in data set [3] (Ritonavir 5.0 ng/ml alone), 0.5%; in data set [3] (Ritonavir 10.0 ng/ml alone), 8.9%. Moreover, the “influence of combined use of KNI-272 on the dynamics in vivo of Ritonavir” value in data set [4] (KNI-272 administered immediately after Ritonavir, dogs) is reported as “no apparent influence”. In addition, in data set [4] (medicaments individually administered), the “MRT value (index of the half-life of concentration in blood)” value is ≥ 180 minutes and more than 180 minutes.
Consider `CC(C)(C)NC(=O)[C@@H]1CN(Cc2cccnc2)CCN1C[C@@H](O)C[C@@H](Cc1ccccc1)C(=O)N[C@H]1c2ccccc2C[C@H]1O` [Indinavir, [1(1S, 2R),5(S)]-2,3,5-trideoxy-N-(2,3-dihydro-2-hydroxy-1H-indane-1-yl)-5-[2-(1,1-dimethylethyl)aminocarbonyl-4-(3-pyridinylmethyl)-1-piperazinyl]-2-(phenylmethyl)-D-erythro-pentonamide, reference compound], for which the “increase in maximum concentration in blood value (Cmax) of Indinavir” value in data set [1] (setting [6]) is listed as “as much as twice”. Also, in data set [1] (setting [6]), the “increase in the AUC value of Indinavir” value was “almost two times”. Besides, the AUC in data set [1] (Indinavir 40 mg/kg p.o. individually) is 17200 ng·h/mL; in data set [1] (Indinavir 40 mg/kg p.o. together with KNI-272 40 mg/kg), 44300 ng·h/mL. The results for the IC50 (in the data set on HIV Wild strain (IIIB) (setting [7]); in data set [5]; with KNI-272 resistant strain (setting [7])) were 0.009 µg/mL (≈ 0.0147 µM), 0.576 µg/mL (≈ 0.938 µM) and 0.03 µg/mL (≈ 0.0489 µM), respectively.

The AUC is the area under the concentration-time curve, a measure of exposure. Usually IC50 stands for the concentration needed to halve the response being measured.
